Here are results for one compound from patent publication US20060241082A1, “Modulating vesicular monoamine transporter trafficking and function: a novel approach for the treatment of parkinson's disease” (priority 2002, published 2006).

For orientation: Km means the concentration of substrate that gives half-maximal velocity.

For assay [1], the target named is T1, plasmalemmal DA transporter (DAT) (Rattus norvegicus, UniProt P23977).
T1 construct: from tissue; host or cells: striatum of male Sprague-Dawley rats (synaptosomes, P2)
Put plainly: Plasmalemmal [3H]DA uptake in striatal synaptosomes prepared from treated rats. Type of assay: in vivo. The note with it: MDMA 4 x 10 mg/kg s.c. On the procedure: Uptake of [^3H]DA was determined in striatal synaptosomes prepared according to the method described by Kokoshka et al. (1998). Briefly, fresh striatal tissue was homogenized in cold 0.32 M sucrose and centrifuged (800×g for 12 min; 4° C.). The supernatant (S1) was then centrifuged (22,000×g for 15 min; 4° C.), and the resulting pellet (P2) was resuspended in ice-cold modified Kreb's buffer (in mM: 126 NaCl, 4.8 KCl, 1.3 CaCl2, 16 sodium phosphate, 1.4 MgSO4, 11 dextrose, 1-ascorbic acid, pH 7.4). Assays were conducted in Kreb's buffer. Each assay tube contained synaptosomal tissue (i.e., resuspended P2 obtained from 1.5 mg of original wet weight striatal tissue) and 1 μM pargyline. Nonspecific values were determined in the presence of 100 μM cocaine. After preincubation of assay tubes for 10 min at 37° C., assays were initiated by the addition of [^3H]DA (0.5 nM final concentration). Samples were incubated at 37° C. for 3 min. Samples were then filtered through Whatman GF/B filters (Brandel, Gaithersburg, Md.) soaked previously in 0.05% polyethylenimine. Filters were washed rapidly 3 times with 3 ml of ice-cold 0.32 M sucrose using a Brandel filtering manifold. […] Remaining resuspended P2 samples were assayed for protein concentrations according to the method of Lowry et al. (1951). In MDMA preincubation experiments, samples were preincubated with 10 μM MDMA for 30 min at 37° C. After 30 min, resuspended P2 fractions were “washed” by centrifugation (22,000×g for 15 min; 4° C.). The resulting pellet (P3) was then resuspeded in ice-cold Kreb's buffer, and once again centrifuged (22,000×g for 15 min; 4° C.) to obtain a P4 pellet that was subsequently resuspended and assayed. [^3H]WIN35428 binding (0.5 nM final concentration) was conducted in phosphate-buffered 0.32 M sucrose, pH 7.4, with synaptosomes obtained from 2 mg (original wet weight) of striatal tissue per reaction tube, and samples were incubated on ice for 2 hr. Samples were then filtered through Whatman GF/B filters (Brandel, Gaithersburg, Md.) soaked previously in 0.05% polyethylenimine. […]

Assay [2] concerns the target T2, DAT (Rattus norvegicus, UniProt P23977).
T2 construct: from tissue; host or cells: striatum of male Sprague-Dawley rats (synaptosomes, P2)
Description: [3H]WIN35428 binding in striatal synaptosomes prepared from treated rats. Type of assay: in vivo. Conditions: MDMA 4 x 10 mg/kg s.c. As for the experimental part: (§1) Uptake of [^3H]DA was determined in striatal synaptosomes prepared according to the method described by Kokoshka et al. (1998). Briefly, fresh striatal tissue was homogenized in cold 0.32 M sucrose and centrifuged (800×g for 12 min; 4° C.). The supernatant (S1) was then centrifuged (22,000×g for 15 min; 4° C.), and the resulting pellet (P2) was resuspended in ice-cold modified Kreb's buffer (in mM: 126 NaCl, 4.8 KCl, 1.3 CaCl2, 16 sodium phosphate, 1.4 MgSO4, 11 dextrose, 1-ascorbic acid, pH 7.4). Assays were conducted in Kreb's buffer. Each assay tube contained synaptosomal tissue (i.e., resuspended P2 obtained from 1.5 mg of original wet weight striatal tissue) and 1 μM pargyline. Nonspecific values were determined in the presence of 100 μM cocaine. After preincubation of assay tubes for 10 min at 37° C., assays were initiated by the addition of [^3H]DA (0.5 nM final concentration). Samples were incubated at 37° C. for 3 min. Samples were then filtered through Whatman GF/B filters (Brandel, Gaithersburg, Md.) soaked previously in 0.05% polyethylenimine. Filters were washed rapidly 3 times with 3 ml of ice-cold 0.32 M sucrose using a Brandel filtering manifold. […] Remaining resuspended P2 samples were assayed for protein concentrations according to the method of Lowry et al. (1951). In MDMA preincubation experiments, samples were preincubated with 10 μM MDMA for 30 min at 37° C. After 30 min, resuspended P2 fractions were “washed” by centrifugation (22,000×g for 15 min; 4° C.). The resulting pellet (P3) was then resuspeded in ice-cold Kreb's buffer, and once again centrifuged (22,000×g for 15 min; 4° C.) to obtain a P4 pellet that was subsequently resuspended and assayed. [^3H]WIN35428 binding (0.5 nM final concentration) was conducted in phosphate-buffered 0.32 M sucrose, pH 7.4, with synaptosomes obtained from 2 mg (original wet weight) of striatal tissue per reaction tube, and samples were incubated on ice for 2 hr. Samples were then filtered through Whatman GF/B filters (Brandel, Gaithersburg, Md.) soaked previously in 0.05% polyethylenimine. Filters were washed rapidly 3 times with 3 ml of ice-cold 0.32 M sucrose using a Brandel filtering manifold. […] Remaining resuspended P2 samples were assayed for protein concentrations according to the method of Lowry et al. (1951).

Assay [3] concerns the target T2, DAT. Put plainly: In vitro preincubation of striatal synaptosomes with MDMA: [3H]DA uptake and WIN35428 binding. It is filed as biochemical. Conditions: 30 min, 37° C. As for the experimental part:
as §1

Assay [4] addresses VMAT-2 (Mus musculus, UniProt Q8BRU6). Description: Vesicular [3H]dopamine uptake in striatal vesicles prepared from treated mice. Type of assay: in vivo. Conditions: MDMA 4 x 10 mg/kg s.c. As for the experimental part:
(A. E. Fleckenstein, et al., J. Pharmacol Exp Ther. (1997) 282:834-838). Briefly, fresh tissue was homogenized in ice-cold 0.32 M sucrose. The homogenate was centrifuged (800×g for 12 min; 4° C.), and the supernatant (S1) was carefully removed and centrifuged (22,000×g for 15 min; 4° C.) to obtain the synaptosomal-containing pellet (P2). The resulting P2 were resuspended and homogenized in ice-cold distilled deionized water. Osmolarity was restore by addition 25 mM HEPES and 100 mM potassium tartrate (final concentration; pH 7.5 at 4° C. respectively). […] The resultant S3 removed and MgSO4 added (final concentration of [1 mM] pH 7.5 at 4° C.) and centrifuged at 100,000×g for 45 min. The final P4 were resuspended at 50 mg/ml (original tissue wet weight).

Assay [5] has as its target T1, plasmalemmal DA transporter (DAT). Conditions: MDMA-treated rats, multiple high-dose, Metzger et al., 1998, cited from earlier work.
Assay [6] has as its target T3, VMAT-2 (Rattus norvegicus, UniProt Q01827). Description: [3H]DHTBZ binding in purified striatal vesicles prepared from treated rats. The note with it: rats, MDMA 4 x 10 mg/kg s.c., both 1 and 24 h after treatment.
Description: Synaptic vesicles were obtained from synaptosomes prepared from rat striatum as described above. Synaptosomes were resuspended and homogenized in cold distilled deionized water. Osmolarity was restored by addition of HEPES and potassium tartrate 245 and 100 mM (final concentrations; pH 7.5), respectively. Samples were centrifuged for 20 min at 20,000×g (4° C.) to remove lysed synaptosomal membranes. MgSO4 (1 mM, final concentration) was added to the supernatant, which was then centrifuged for 45 min at 100,000×g (4° C.). The resulting vesicular pellet was resuspended in wash buffer at a concentration of 50 mg/ml (original tissue weight). […] Binding of [^3H]DHTBZ was performed as described by Teng et al. (1998). Briefly, 200 μl of the synaptic vesicle preparation (˜6 μg of protein) was incubated in wash buffer in the presence of [^3H]DHTBZ (2 nM final concentration) for 10 min at 25° C. The reaction was terminated by addition of 1 ml of cold wash buffer and rapid filtration through Whatman GF/F filters soaked in 0.5% polyethylenimine. Filters were washed three times with ice-cold wash buffer. Nonspecific binding was determined by coincubation with 20 μM tetrabenazine. All protein concentrations were determined by a BioRad protein assay (Bio-Rad, Richmond, Calif.).
Binding of [^3H]DHTBZ was performed as described by Teng et al. (1998). Briefly, 200 μl (˜6 μg protein) of the synaptic vesicle preparation was incubated in wash buffer in the presence of [^3H]DHTBZ (2 nM final concentration except in kinetic analyses wherein 0.25-500 nM DHTBZ was employed) for 10 m in at 25° C. The reaction was terminated by addition of 1 ml cold wash buffer and rapid filtration through Whatman GF/F filters soaked in 0.5% polyethylenimine. Filters were washed three times with ice-cold wash buffer. Radioactivity trapped in filters was counted using a liquid scintillation counter. Nonspecific binding was determined by coincubation with 20 μM TBZ. All protein concentrations were determined by a Bio-Rad protein assay (Bio-Rad Inc.).
Binding of[^3H]DHTBZ was performed as described by Teng et al. (1998). Briefly, 200 μl (˜5 μg protein) of the synaptic vesicle preparation was incubated in wash buffer in the presence of [^3H]DHTBZ (2 nM final concentration except in kinetic analyses wherein 0.25-500 nM DHTBZ was employed) for 10 m in at 25° C. The reaction was terminated by addition of 1 ml cold wash buffer and rapid filtration through Whatman GF/F filters soaked in 0.5% polyethylenimine. Filters were washed three times with ice-cold wash buffer. Radioactivity trapped in filters was counted using a liquid scintillation counter. Nonspecific binding was determined by coincubation with 20 μM TBZ. All protein concentrations were determined by a Bio-Rad protein assay (Bio-Rad Inc.).
Assay [7] addresses T3, VMAT-2. Type of assay: in vivo. Also noted: purified striatal vesicles prepared from treated rats; from tissue; host or cells: striatum of male Sprague-Dawley rats (synaptic vesicles; P2, P3, S3 fractions). Conditions: rats, MDMA 4 x 10 mg/kg s.c. On the procedure:
Osmolarity was restored by addition of N-(2-hydroxyethyl)-piperazine-N′-2-ethanesulfonic acid (HEPES) and potassium tartrate 25 mM and 100 mM (final concentrations; pH 7.5 at 4° C.), respectively.

“And” between values parts separate entries of the source, which are not always exact repeats. Equal entries are not always repeated.

T3 sequence (Q01827 whole entry): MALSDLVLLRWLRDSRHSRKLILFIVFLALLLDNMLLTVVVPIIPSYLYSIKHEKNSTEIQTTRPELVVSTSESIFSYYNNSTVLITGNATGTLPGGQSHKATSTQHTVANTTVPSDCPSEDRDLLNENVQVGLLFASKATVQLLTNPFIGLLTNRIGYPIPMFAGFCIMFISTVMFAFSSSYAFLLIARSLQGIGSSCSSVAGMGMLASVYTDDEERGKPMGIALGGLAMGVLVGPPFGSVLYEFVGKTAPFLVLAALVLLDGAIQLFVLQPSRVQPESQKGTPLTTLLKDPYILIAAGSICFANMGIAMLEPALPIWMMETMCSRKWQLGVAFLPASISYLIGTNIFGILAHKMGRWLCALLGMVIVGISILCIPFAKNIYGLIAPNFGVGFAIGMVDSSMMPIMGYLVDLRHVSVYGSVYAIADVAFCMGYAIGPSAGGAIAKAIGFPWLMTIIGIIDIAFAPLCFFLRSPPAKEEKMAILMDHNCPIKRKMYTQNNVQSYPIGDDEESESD
T1 sequence (P23977 whole entry): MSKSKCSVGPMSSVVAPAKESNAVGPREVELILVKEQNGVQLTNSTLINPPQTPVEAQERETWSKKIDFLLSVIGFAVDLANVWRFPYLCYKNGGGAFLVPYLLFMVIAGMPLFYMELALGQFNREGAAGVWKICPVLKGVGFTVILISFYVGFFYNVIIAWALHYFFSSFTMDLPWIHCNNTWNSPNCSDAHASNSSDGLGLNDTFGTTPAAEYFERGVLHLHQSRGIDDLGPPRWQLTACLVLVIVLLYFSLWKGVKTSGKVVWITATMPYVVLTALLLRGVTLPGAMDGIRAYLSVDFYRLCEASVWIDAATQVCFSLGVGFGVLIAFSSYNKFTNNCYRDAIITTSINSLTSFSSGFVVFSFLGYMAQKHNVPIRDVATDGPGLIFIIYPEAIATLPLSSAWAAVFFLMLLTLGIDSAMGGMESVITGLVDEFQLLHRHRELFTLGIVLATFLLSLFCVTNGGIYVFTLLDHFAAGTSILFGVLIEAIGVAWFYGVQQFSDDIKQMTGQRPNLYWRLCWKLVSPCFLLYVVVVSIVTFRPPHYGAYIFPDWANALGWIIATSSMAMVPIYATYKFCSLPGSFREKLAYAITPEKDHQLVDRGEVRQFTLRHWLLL
T2 sequence (P23977 whole entry): as above
VMAT-2 (Mus musculus, UniProt Q8BRU6), sequence (Q8BRU6 whole entry): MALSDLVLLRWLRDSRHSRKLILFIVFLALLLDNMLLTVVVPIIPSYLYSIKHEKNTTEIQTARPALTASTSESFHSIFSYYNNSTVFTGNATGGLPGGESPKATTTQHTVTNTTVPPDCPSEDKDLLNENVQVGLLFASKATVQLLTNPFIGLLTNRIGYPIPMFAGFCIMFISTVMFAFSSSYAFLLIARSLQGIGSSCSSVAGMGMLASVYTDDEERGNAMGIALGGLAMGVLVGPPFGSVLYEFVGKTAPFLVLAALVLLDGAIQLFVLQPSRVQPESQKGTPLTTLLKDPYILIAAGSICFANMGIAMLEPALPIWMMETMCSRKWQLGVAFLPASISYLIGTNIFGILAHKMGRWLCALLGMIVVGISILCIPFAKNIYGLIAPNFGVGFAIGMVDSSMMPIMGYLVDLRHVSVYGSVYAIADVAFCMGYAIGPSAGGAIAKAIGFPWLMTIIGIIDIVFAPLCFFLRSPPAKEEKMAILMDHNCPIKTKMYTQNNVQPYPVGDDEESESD

Take `CNC(C)Cc1ccc2c(c1)OCO2` (stereo not drawn) [MDMA, methylenedioxymethamphetamine]: the “magnitude of the decrease in plasmalemmal DA uptake” value in assay [1] (2-h intervals, 1 h) is recorded as 35-55%. Further, in assay [1] (24 h), the “deficit in plasmalemmal DA uptake 24 h after drug treatment” value is on record as “reversed”. The “WIN35428 binding in the body temperature experiment” value on DAT [2] (6 or 24° C. ambient, 1 h (data not shown)) is “not affected”. Further, the “decrease in WIN35428 binding” value on DAT [2] (1 h after treatment) is 10% and 18%. For the same compound, the “deficit in WIN35428 binding 24 h after drug treatment” value at DAT [2] (24 h) is listed as “persisted”. In addition, the “WIN35428 binding after incubation of synaptosomes with MDMA” value on DAT [3] (MDMA 10 μM) is “no effect”. Besides, at DAT [3] (striatal synaptosomes incubated with MDMA 10 μM), the “decrease in DA uptake in vitro” value is reported as 35-55%. Besides, the “vesicular dopamine uptake after multiple MDMA administrations” value on VMAT-2 [4] (1 h) is given as “rapidly decreased”. Also, the “decrease in vesicular dopamine uptake 24 h later” value on VMAT-2 [4] (24 h) is listed as “largely reversed”. Further, the “Vmax of plasmalemmal DA uptake” value in assay [5] is 1410 fmol/μg/5 min. Also, the Km in assay [5] (read-out: transporter Km of plasmalemmal DA uptake) was 0.0989 µM. Besides, the “binding of the VMAT-2 ligand [3H]DHTBZ” value at VMAT-2 [6] is reported as “reduced”. Moreover, at VMAT-2 [7] (1 h), the “deficit in vesicular DA uptake” value was 25-30% and the “vesicular DA uptake 1 h after multiple MDMA administrations” value was “rapidly decreased”. The “deficit in vesicular DA uptake 24 h after drug treatment” value at VMAT-2 [7] (24 h) is given as “partially recovered”.
